Series [1] can be described thus: Metabolic stability in human hepatocytes assessed as intrinsic clearance and measured upto 60 mins in presence of NADPH by LC-MS/MS analysis. It is filed as ADME, cell-based, Hepatocyte. The settings on record: read-out: CLH.
A short description of series [2]: Microsomal stability in human liver microsomes assessed as intrinsic clearance and measured upto 60 mins in presence of NADPH by LC-MS/MS analysis. Format: ADME, Microsome. The settings on record: read-out: CLH. Background: Liver microsomes are vesicles of endoplasmic reticulum, rich in cytochrome P450 enzymes.
A short description of series [3]: Metabolic stability in human plasma assessed as half life and measured upto 240 mins by LC-MS/MS analysis. It is filed as ADME, cell-free.

Regarding `O=C1CCC(N2Cc3ccc(S(=O)(=O)F)cc3C2=O)C(=O)N1` (configuration not stated), the CLint scaled in series [1] is under 9.6 mL/min/kg; in series [2], 13.7 mL/min/kg.

As usually defined, the half-life is the time needed for the level to fall by half in the phase considered. Regarding `O=C1CCC(N2Cc3ccccc3C2=O)C(=O)N1` (configuration not stated), the CLint scaled in series [1] was under 9.6 mL/min/kg; in series [2], under 6.1 mL/min/kg. Further, the half-life in series [3] was 1.98 h.

With `O=C1CCC(N2Cc3ccc(OS(=O)(=O)F)cc3C2=O)C(=O)N1` (configuration not stated), the CLint scaled in series [1] was under 9.6 mL/min/kg; in series [2], under 6.1 mL/min/kg.
